Measurements reported in paper PMC10017709, “Structural basis of selective cannabinoid CB2 receptor activation” (Nature Communications, 2023).
Where “and” joins values, the source holds several entries; their conditions need not be identical. Equal entries are not always repeated.

Tests used:
hCB1R WT = hCB1R WT (Homo sapiens, UniProt P21554); experiment: [3H]CP55,940 displacement assay, CB1R WT; assay type: binding; settings: for percentage specific [3H]CP55,940 binding: CB1R - WT, 10 µM ligand, replicates 1-3; for Displacement (%) of [3H]CP55,940: CB1R WT, 10 µM compound
CB2R-L185^ECL2H [1] = target: T1, CB2R-L185^ECL2H (Homo sapiens, UniProt P34972, L185H); experiment: [35S]GTPγS assay, CB2R L185H mutant; assay type: biochemical; settings: L185H mutant
CB1R activity = experiment: Mouse tetrad assay for CB1R activity; settings: in vivo, po, 25 mg/kg
Method: To determine whether LEI-102 maintained its selectivity for CB2R over CB1R in vivo, LEI-102 was tested in the mouse tetrad assay for CB1R activity. In this assay, four consecutive behavioral tests, related to anti-nociception, hypothermia, catalepsy, and spontaneous activity, were performed 120 min after administration of the agonist. […] There were no effects on nociceptive behavior assessed in tail withdrawal test nor on body temperature (Fig. 6 upper row). No effect was found on locomotor behavior (Fig. 6 lower row) in case of distance traveled, time spent mobile, or running speed of mice.
(§1) The well-established model of cisplatin-induced nephropathy was used[63]. Mice (CB2R^−/− and CB2R^+/+) were sacrificed 72 h after a single injection of cisplatin (cis-diamine platinum (II) dichloride (Sigma#P4394) 25 mg/kg i.p.; freshly dissolved in physiological saline) by cervical dislocation under deep anesthesia with 5% isoflurane, for collection of blood and tissue samples. LEI-102 was given i.p. or by oral gavage (p.o.) at 0.3, 3.0, and 10 mg/kg every day, starting 1.5 h before the cisplatin exposure. The drug was dissolved in a vehicle of DMSO:Tween 80:saline, 1:1:18. After administration of LEI‐102, mice were killed by cervical dislocation under deep anesthesia with 5% isoflurane, for collection of blood and tissue samples at the time described in the figure. The tetrad assay in mice has previously been described in detail.

CB1R I267ECL2L = CB1R I267ECL2L (Homo sapiens, UniProt P21554, I267L); experiment: [35S]GTPγS assay, CB1R I267L mutant; assay type: biochemical; settings: for Agonist-mediated activation: CB1R I267L, 10 µM agonist
CB1R D266ECL2E [2] = target: T2, CB1R D266ECL2E (Homo sapiens, UniProt P21554, D266E); experiment: [35S]GTPγS assay, CB1R D266E mutant; assay type: biochemical; settings: for Agonist-mediated activation: CB1R D266E, 10 µM agonist
T2 construct: The WT CB1R and CB2R genes were subcloned into vector pcDNA3.1; HA signal peptide (N); expressed in transfected cells; host or cells: HEK293T (transient, membrane homogenates)

CB2R-L185^ECL2H [3] = target: T1, CB2R-L185^ECL2H; experiment: [3H]CP55,940 displacement assay, CB2R L185H mutant; assay type: binding; settings: read-out: pKi (converted)
hCB2R = target: T3, hCB2R (Homo sapiens, UniProt P34972); experiment: [3H]RO6957022 displacement assay; assay type: binding; settings: for percentage specific [3H]RO6957022 binding (displacement): individual replicates
T3 construct: host or cells: CHO-K1 (CHOK1_hCB2bgal, PathHunter), membranes

CB1R QuadrupleTM1,7 = target: T4, CB1R QuadrupleTM1,7 (Homo sapiens, UniProt P21554, I119V/Q116K/S123C/T377K); experiment: [3H]CP55,940 displacement assay, CB1R quadruple mutant; assay type: binding; settings: for Displacement (%) of [3H]CP55,940: CB1R Quadruple TM1,7, 10 µM compound; for percentage specific [3H]CP55,940 binding: CB1R QuadrupleTM1,7, 10 µM ligand, replicates 1-3
T4 construct: The WT CB1R and CB2R genes were subcloned into vector pcDNA3.1; HA signal peptide (N); expressed in transfected cells; host or cells: HEK293T (transient, membrane homogenates)

CB2R-S285^7.39A = CB2R-S285^7.39A (Homo sapiens, UniProt P34972, S285A); experiment: [35S]GTPγS assay, CB2R S285A mutant; assay type: biochemical; settings: S285A mutant
CB1R D266ECL2E [4] = target: T2, CB1R D266ECL2E; experiment: [3H]CP55,940 displacement assay, CB1R D266E mutant; assay type: binding; settings: for Displacement (%) of [3H]CP55,940: CB1R D266E, 10 µM compound; for percentage specific [3H]CP55,940 binding: CB1R D266ECL2E, 10 µM ligand, replicates 1-3
[5] = system: cisplatin-induced nephropathy, CB2R knockout mice (CB2R−/−); experiment: Cisplatin-induced nephropathy in CB2R knockout mice; assay type: in vivo
Method: Ten to twelve-week-old male/female C57BL/6J mice were obtained from The Jackson Laboratory (Bar Harbor, ME, USA). CB2R knockout mice (CB2R^−/−) and their wild-type littermates (CB2R^+/+) were developed as described previously and had been backcrossed to a C57BL/6J background. All animals were kept in a temperature-controlled environment (20–22 °C) with a 12 h light–dark cycle and were always allowed free access to food and water. All animal experiments reported in this manuscript complied with the National Institutes of Health “Guide for the Care and Use of Laboratory Animals” (NIH publication 86–23 revised 1985) and were approved by the Institutional Animal Care and Use Committee of the National Institute on Alcohol Abuse and Alcoholism (Bethesda, MD).
as §1
Markers of kidney dysfunction (BUN and CREA), histopathology (PAS staining), immunostaining or ELISA for 3-nitrotyrosine (3-NT; Cell Biolabs #STA-305) and 4-hydroxynonenal (4-HNE; Cell Biolabs#STA-838), and real-time PCR (Primers from Qiagen, SYBER Green Vita Scientific#MEIF01301, High-Capacity cDNA Reverse Transcription Kit, Thermo Fisher Scientific#4368813) for inflammatory cytokines were performed as previously described. Tubular damage scores were determined based on the percentage of tubules showing epithelial necrosis where 0= normal; 1, <10%; 2, 10–25%; 3, 26–75%; 4, >75%. Tubular necrosis was defined as the loss of the proximal tubular brush border, blebbing of apical membranes, tubular epithelial cell detachment from the basement membrane, or intraluminal aggregation of cells and proteins. The morphometric examination was performed in a blinded manner. Ten fields were scored from each mouse kidneys at 200× magnification, and average scores were determined for each mouse. For final quantification graph, average tubular damage scores of six mice/group were plotted.

CB1R-H270^ECL2L = CB1R-H270^ECL2L (Homo sapiens, UniProt P21554, H270L); experiment: [3H]CP55,940 displacement assay, CB1R H270L mutant; assay type: binding; settings: for percentage specific [3H]CP55,940 binding: CB1R H270ECL2L, 10 µM ligand, replicates 1-3; for Displacement (%) of [3H]CP55,940: CB1R H270L, 10 µM compound
CB1R-L359^6.51V = CB1R-L359^6.51V (Homo sapiens, UniProt P21554, L359V); experiment: [3H]CP55,940 displacement assay, CB1R L359V mutant; assay type: binding; settings: for percentage specific [3H]CP55,940 binding: CB1R L3596.51V, 10 µM ligand, replicates 1-3
[6] = system: chronic abdominal pain associated with Crohn’s disease; settings: 14 patients with chronic abdominal pain associated with Crohn’s disease; cited from earlier work
[7] = Cisplatin + LEI-102 10 mg/kg, KO, mean, n = 6
[8] = at 10 µM compared to WT, read-out: Emax (%)

T4 sequence (P21554 whole entry Q116K/I119V/S123C/T377K): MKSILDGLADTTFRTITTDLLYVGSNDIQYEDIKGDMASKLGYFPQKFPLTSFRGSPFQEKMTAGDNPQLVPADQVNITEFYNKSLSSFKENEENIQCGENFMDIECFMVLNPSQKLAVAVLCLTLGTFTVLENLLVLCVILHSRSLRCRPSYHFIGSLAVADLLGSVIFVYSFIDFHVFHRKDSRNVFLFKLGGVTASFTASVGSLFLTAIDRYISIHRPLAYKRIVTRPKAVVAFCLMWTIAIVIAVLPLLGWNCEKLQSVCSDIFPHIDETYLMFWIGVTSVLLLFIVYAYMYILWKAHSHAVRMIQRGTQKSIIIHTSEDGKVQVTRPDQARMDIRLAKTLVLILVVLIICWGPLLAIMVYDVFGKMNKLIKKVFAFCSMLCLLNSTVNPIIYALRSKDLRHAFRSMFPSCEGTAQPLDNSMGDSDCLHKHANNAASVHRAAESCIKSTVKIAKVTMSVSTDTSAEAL
Sequence of CB1R-L359^6.51V (P21554 whole entry L359V): as the sequence (P21554 whole entry Q116K/I119V/S123C/T377K) above, with K116Q, V119I, C123S, L359V, K377T counted along it
Sequence of CB1R I267ECL2L (P21554 whole entry I267L): as the sequence (P21554 whole entry Q116K/I119V/S123C/T377K) above, with K116Q, V119I, C123S, I267L, K377T counted along it
T1 sequence (P34972 whole entry L185H): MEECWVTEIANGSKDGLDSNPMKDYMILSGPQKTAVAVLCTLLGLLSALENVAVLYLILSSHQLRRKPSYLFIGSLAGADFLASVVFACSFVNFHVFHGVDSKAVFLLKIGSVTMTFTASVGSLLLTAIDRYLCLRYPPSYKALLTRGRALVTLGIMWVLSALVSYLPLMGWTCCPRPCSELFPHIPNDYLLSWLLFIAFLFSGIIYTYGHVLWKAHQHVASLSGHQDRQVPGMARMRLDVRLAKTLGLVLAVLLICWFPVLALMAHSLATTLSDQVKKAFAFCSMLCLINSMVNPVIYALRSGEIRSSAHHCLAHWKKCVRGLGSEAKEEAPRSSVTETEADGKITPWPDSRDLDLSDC
T3 sequence (P34972 whole entry): as the sequence (P34972 whole entry L185H) above, with H185L counted along it
T2 sequence (P21554 whole entry D266E): as the sequence (P21554 whole entry Q116K/I119V/S123C/T377K) above, with K116Q, V119I, C123S, D266E, K377T counted along it
Sequence of CB1R-H270^ECL2L (P21554 whole entry H270L): as the sequence (P21554 whole entry Q116K/I119V/S123C/T377K) above, with K116Q, V119I, C123S, H270L, K377T counted along it
Sequence of hCB1R WT (P21554 whole entry): as the sequence (P21554 whole entry Q116K/I119V/S123C/T377K) above, with K116Q, V119I, C123S, K377T counted along it
Sequence of CB2R-S285^7.39A (P34972 whole entry S285A): as the sequence (P34972 whole entry L185H) above, with H185L, S285A counted along it

SMILES	percentage specific [3H]CP55,940 binding (hCB1R WT)	Displacement (%) of [3H]CP55,940 (hCB1R WT) [%]	Agonist-mediated activation (CB1R I267ECL2L) [fold over its basal]	Agonist-mediated activation (CB1R D266ECL2E [2]) [fold over its basal]	percentage specific [3H]RO6957022 binding (displacement) (hCB2R; log [agonist] (M) -5)	percentage specific [3H]RO6957022 binding (displacement) (hCB2R; log [agonist] (M) -6)	percentage specific [3H]RO6957022 binding (displacement) (hCB2R; log [agonist] (M) -7)	percentage specific [3H]RO6957022 binding (displacement) (hCB2R; log [agonist] (M) -8)	percentage specific [3H]RO6957022 binding (displacement) (hCB2R; log [agonist] (M) -9)	Displacement (%) of [3H]CP55,940 (CB1R QuadrupleTM1,7) [%]	percentage specific [3H]CP55,940 binding (CB1R QuadrupleTM1,7)	Displacement (%) of [3H]CP55,940 (CB1R D266ECL2E [4]) [%]	percentage specific [3H]CP55,940 binding (CB1R D266ECL2E [4])	percentage specific [3H]CP55,940 binding (CB1R-H270^ECL2L)	Displacement (%) of [3H]CP55,940 (CB1R-H270^ECL2L) [%]	percentage specific [3H]CP55,940 binding (CB1R-L359^6.51V)	other results
CC(C)CN1C(=O)CN(Cc2ccc(-c3ccc(F)c(CNC4CCOCC4)n3)cc2)C1=O [LEI-102, 1-(4-(5-fluoro-6-(((tetrahydro-2H-pyran-4-yl)amino)methyl)pyridin-2-yl)benzyl)-3-isobutylimidazolidine-2,4-dione]	72.08 percentage and 95.14 percentage and 82.84 percentage	17 ± 7	1.0 ± 0.0	1.1 ± 0.1	-32.33% and 4.32% and 0.17%	-14.04% and 1.26% and 2.78%	18.14% and 30.43% and 22.20%	86.67% and 64.68% and 56.33%	136.04% and 85.34% and 92.04%	26 ± 10	70.97 percentage and 58.02 percentage and 92.08 percentage	38 ± 10	65.03 percentage and 44.89 percentage and 77.53 percentage	43.52 percentage and 52.40 percentage and 62.26 percentage	47 ± 5	87.28 percentage and 69.23 percentage and 69.34 percentage	binding to CB1R (hCB1R WT; [3H]CP55,940 displacement): did not bind; selectivity (CB2R over CB1R) (hCB1R WT; binding, CB2R vs CB1R): at least 1000 fold; EC50 (CB2R-L185^ECL2H [1]; HEK293T membranes): 126 nM; Emax (%) (CB2R-L185^ECL2H [1]; at 10 µM compared to WT): 217 ± 21%; catalepsy (CB1R activity): Nor was catalepsy observed; effects in the tetrad assay as compared with vehicle (CB1R activity): did not produce any effects; Tail withdrawal (%MPE) (CB1R activity; 120 min): 30.0 %MPE; G protein activation, fold over its basal (CB1R I267ECL2L; CB1R I267ECL2L, individual replicates): 1.03 fold over its basal and 1.063 fold over its basal and 1.016 fold over its basal; G protein activation, fold over its basal (CB1R D266ECL2E [2]; CB1R D266ECL2E, individual replicates): 1.059 fold over its basal and 1.264 fold over its basal and 1.015 fold over its basal; Ki (CB2R-L185^ECL2H [3]): 50.1 nM; Ki (hCB2R; CHOK1_hCB2bgal membranes, 10 °C): 9.7 nM; percentage specific [3H]RO6957022 binding (displacement) (hCB2R; log [agonist] (M) -10): 150.08% and 77.03% and 85.93%; EC50 (CB2R-S285^7.39A; HEK293T membranes): 501 nM; pEC50 (CB2R-S285^7.39A; HEK293T membranes): no significant effect; Emax (%) (CB2R-S285^7.39A; at 10 µM compared to WT): 45 ± 8%; protective effects against cisplatin-induced renal dysfunction, tubular damage, histopathological injury and oxidative-nitrative stress ([5]; CB2R knockout mice): abolished; BUN [5, 7]: 312; CREA [5, 7]: 3.9; Tubular damage score [5, 7]: 2.88
CC(C)(C)[C@@H](CO)NC(=O)c1nn(-c2c[n+]([O-])ccn2)c2c1C[C@@H]1C[C@H]21 [APD371]	104.41 percentage and 153.95 percentage and 99.24 percentage	-19 ± 17	0.9 ± 0.0	0.9 ± 0.1	6.59% and 5.28% and -3.87%	1.67% and 12.98% and 3.83%	44.82% and 59.70% and 42.04%	102.92% and 92.08% and 89.96%	120.09% and 94.02% and 99.12%	0 ± 25	125.90 percentage and 49.87 percentage and 125.34 percentage	12 ± 7	74.46 percentage and 89.45 percentage and 99.44 percentage	89.52 percentage and 87.15 percentage and 98.55 percentage	8 ± 3	78.52 percentage and 68.29 percentage and 98.34 percentage	Emax (CB2R-L185^ECL2H [1]; [8]): 183 ± 16%; percentage specific [3H]RO6957022 binding (displacement) (hCB2R; log [agonist] (M) -7.5): 76.53% and 76.83% and 76.84%; Emax (CB2R-S285^7.39A; [8]): 49 ± 6%; abdominal pain scores [6]: improvement; adverse events [6]: mild-to-moderate adverse events; Displacement (%) of [3H]CP55,940 (CB1R-L359^6.51V; CB1R L359V, 10 µM compound): 18 ± 9%
